We go through two compounds from publication PMC5329948, “Caspase vinyl sulfone small molecule inhibitors prevent axonal degeneration in human neurons and reverse cognitive impairment in Caspase-6-overexpressing mice” (Molecular Neurodegeneration, 2017).

The term IC50 denotes the concentration that inhibits the measured activity by half.

For one test, the target named is T1, recombinant Caspase-5 (Homo sapiens, UniProt P51878).
T1 construct: purchased BioVision
Kind of test: Caspase Inhibitor Drug Screening Kit (BioVision), WEHD-AFC substrate. It is filed as biochemical. The following applies: not active site titrated. The method, then: The half-maximal inhibitory concentrations (IC50) for NWL inhibitors (Patent publication # WO/2009/140765, WO/2010/133000, and WO/2012/140500) was determined by incubating 0 to 20 μM NWL-117 and NWL-154 with 20 nM of active site-titrated Casp6 in SB at room temperature for 5 minutes. Then, 10 μM Ac-VEID-AFC was added and fluorescence measured for 20 min at 37 °C as described above. New World Laboratories performed the IC50 determination for NWL inhibitors dissolved in dimethyl sulfoxide (DMSO) against recombinant Casp1-10 using the Caspase Inhibitor Drug Screening Kits (BioVision, San Francisco, CA) following the manufacturer’s instructions and the preferred substrates for the caspases (Caspase-1: WAD-AFC, Caspase-2: VDVAD-AFC, Caspase-3: DEVD-AFC, Caspase-4: LEVD-AFC, Caspase-5: WEHD-AFC, Casp6:VEID-AFC, Caspase-7: DEVD-AFC, Caspase-8: IETD-AFC, Caspase-9: LEHD-AFC, Caspase-10: AEVD-AFC). In transfected HCT116 cells, 0 to 100 μM NWL inhibitors were added in the culture media and left on the cells for 2 h. Cells were washed once with 1 mL ice-cold PBS, incubated on ice for 5 min with 200 μL cell lysis buffer (CLB) (50 mM HEPES, 0.1% CHAPS, 0.1 mM EDTA), and gently scraped off. Protein concentrations were determined by Bradford assay (BioRad, Mississauga, ON, CA) by measuring the absorbance at 595 nm using the BioTek Synergy H4 plate reader. […]

Test [1] addresses T2, Casp6 in serum-deprived primary human neurons (Homo sapiens, UniProt P55212).
T2 construct: endogenous in cells; host or cells: primary human CNS neurons from cortical tissue, serum-deprived
Kind of test: Casp6 activity in serum-deprived primary human neurons (VEIDase, FLICA, TubΔCasp6). The class given is cell-based. The following applies: 100 μM. The method, then:
HCT116: Human colon carcinoma (HCT116) cells (ATCC, Manassas, VA, USA) were cultured in McCoy’s 5A modified media (Thermo Fisher Scientific, Waltham, MA, USA) supplemented with 10% fetal bovine serum (Thermo Fisher Scientific, Waltham, MA, USA) and transfected with 1 μg of pCep4βCasp6p20p10 mixed with 8 μg of polyethyleneimine (Polysciences Inc., Warrington, PA, USA). Protein expression was allowed for 24 h before treating with vehicle (PBS), 100 μM NWL-117, or 100 μM NWL-154 for 2 h. For NWL inhibitor kinetic experiments, 100 μM of NWL-117 or NWL-154 was added at 120, 90, 60, 30, 15, or 0 min before harvest. […]
Recombinant or extracted cellular Casp6 activity: Casp6 activity was assessed by in vitro fluorogenic assays using Ac-Val-Glu-Ile-Asp-(7-Amino-4-trifluoromethylcouramin) (Ac-VEID-AFC: Enzo LifeSciences, NY, USA) as the Casp6 substrate. The activity was measured in Stennicke’s buffer (SB) (20 mM piperazine-N, N-bis (2-ethanesulfonic acid) (PIPES: BioShop Canada Inc, Burlington, Ontario, CA) pH 7.2, 30 mM NaCl, 1 mM ethylenediaminetetraacetic acid (EDTA), 0.1% 3-[(3-cholamidopropyl)-dimethylammonio]-2-hydroxy-1-propanesulfonic acid (CHAPS), 10% sucrose). […] Fluorescence units were converted to the moles of AFC released based on a standard curve of 0–625 picomoles of free AFC. Cleavage rates were calculated from the linear phase of the assay. […]

T1 sequence (P51878 137-434): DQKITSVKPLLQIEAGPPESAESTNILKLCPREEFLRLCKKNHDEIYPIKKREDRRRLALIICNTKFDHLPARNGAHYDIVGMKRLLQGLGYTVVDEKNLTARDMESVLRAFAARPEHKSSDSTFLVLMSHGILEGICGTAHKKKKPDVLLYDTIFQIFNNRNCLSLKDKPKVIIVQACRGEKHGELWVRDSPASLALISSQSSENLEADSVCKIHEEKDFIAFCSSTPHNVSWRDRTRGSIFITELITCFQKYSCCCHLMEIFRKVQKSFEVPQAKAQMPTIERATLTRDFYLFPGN
T2 sequence (P55212 24-293): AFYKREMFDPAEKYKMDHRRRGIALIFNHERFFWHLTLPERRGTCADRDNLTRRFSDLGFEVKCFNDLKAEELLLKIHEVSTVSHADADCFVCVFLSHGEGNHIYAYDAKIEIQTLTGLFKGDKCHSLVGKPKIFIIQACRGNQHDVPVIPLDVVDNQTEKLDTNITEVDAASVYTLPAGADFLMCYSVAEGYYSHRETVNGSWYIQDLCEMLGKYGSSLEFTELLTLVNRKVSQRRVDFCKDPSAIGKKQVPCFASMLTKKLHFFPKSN

Take `CCC(C)[C@H](NC(=O)[C@H](CCC(=O)O)NC(=O)[C@@H](NC(=O)OCc1ccccc1)C(C)C)C(=O)N[C@H](/C=C/S(C)(=O)=O)CC(=O)O` (stereo partly shown) [NWL-117]: the IC50 on recombinant Caspase-5 stood at 19.5 µM. For the same compound, the “Casp6 fluorogenic and FLICA-measured activity and TubΔCasp6” value in test [1] is listed as “decreased”.

On to `CCC(C)[C@H](NC(=O)[C@H](CCC(=O)O)NC(=O)[C@@H](NC(=O)OCc1ccccc1)C(C)C)C(=O)N[C@H](/C=C(\Cl)S(C)(=O)=O)CC(=O)O` (stereo partly shown) [NWL-154], for which the IC50 on recombinant Caspase-5 was 4.19 µM. Further, the “Casp6 fluorogenic and FLICA-measured activity and TubΔCasp6” value in test [1] is on record as “decreased”.
